Results taken from patent US6156790A, “C-10 carbon-substituted artemisinin-like trioxane compounds having antimalarial, antiproliferative and antitumor activities” (priority 1997, dated 2000).

Tests used:
P. falciparum [1] = settings: Camp (chloroquine-susceptible) and Smith (chloroquine-resistant) strains; cited from earlier work
HS 578T = assay: cells; type: cell-based; settings: Homo sapiens; for CC50: read-out: Log10 LC50 (converted); for IC (TGI): read-out: Log10 TGI (converted)
P. berghei = settings: P. berghei-infected mice; cited from earlier work
COLO 205 = assay: NCI 60 cell line screen (SRB), colon cancer; type: cell-based; settings: Homo sapiens; for CC50: read-out: Log10 LC50 (converted); for IC (TGI): read-out: Log10 TGI (converted)
[2] = cited from earlier work
[3] = tested on: P. vivax and P. falciparum; settings: cited from earlier work
K-562 = assay: cells; type: cell-based; settings: Homo sapiens, K562, K-562; for GI50: read-out: Log10 GI50 (converted)
UACC-257 = assay: cells; type: cell-based; settings: Homo sapiens
P388 leukemia = settings: NCI Report on NSC 369397; cited from earlier work
[4] = tested on: chloroquine-sensitive P. falciparum (NF54); assay: In vitro antimalarial activity ([3H]hypoxanthine incorporation); type: cell-based
Experimental: Activity was determined by measuring the incorporation of [^3 H]hypoxanthine, by the methods of Desjardins and Milhouse, with the following modofications, see […].; Haynes, […]. Antimicrob. Agents Chemother., 16:710 (1979); Milhous, W. K.; Weatherly, […].; Antimicrob. Agents Chemother., 27: 525 (1985). […] Parasitemia was maintained at 0.05-3% and doubling time at approximately 15 hours by twice weekly change of medium and replenishment with fresh erythrocytes. […] Sigma-Aldrich #27,043-1). DMSO solutions were diluted 500-fold in medium, serially diluted in 0.2% DMSO in medium (to maintain constant solvent concentration), then 100 μL aliquots were pipetted into microtiter plate wells (Costar 3595). […] Plates included at least 8 wells of no drug controls (4 with and 4 without DMSO) and 4 wells of uninfected erythrocytes. […] Cells were harvested (Brandel MB-48R) onto GF-C glass filters (Brandel). The filters were washed five times with 3 mL water per sample spot, dried under a heat lamp, and counted (Beckman Model LS-6500) in scintillation cocktail (ICN Cytoscint). Decays per minute (dpm) values were downloaded and analyzed (Power MFacintosh 7200/90; Microsoft Excel 5.0), to yield the mean and standard deviation at each drug concentration.

P. falciparum [5] = settings: two Hanian strains; cited from earlier work
SK-MEL-28 = assay: cells; type: cell-based; settings: Homo sapiens
UACC-62 = assay: cells; type: cell-based; settings: Homo sapiens; for CC50: read-out: Log10 LC50 (converted)
MALME-3M = assay: cells; type: cell-based; settings: Homo sapiens; for IC (TGI): read-out: Log10 TGI (converted)
SN12C = assay: cells; type: cell-based; settings: Homo sapiens; for GI50: read-out: Log10 GI50 (converted); for CC50: read-out: Log10 LC50 (converted)
OVCAR-5 = assay: NCI 60 cell line screen (SRB), ovarian cancer; type: cell-based; settings: Homo sapiens; for CC50: read-out: Log10 LC50 (converted); for IC (TGI): read-out: Log10 TGI (converted)
RPMI-8226 = assay: cells; type: cell-based; settings: Homo sapiens
CAKI-1 = assay: NCI 60 cell line screen (SRB), renal cancer; settings: Homo sapiens; for CC50: CAKI-1, read-out: Log10 LC50 (converted)
MDA-MB-435 = assay: cells; type: cell-based; settings: Homo sapiens; for IC (TGI): read-out: Log10 TGI (converted)
SF-268 = assay: NCI 60 cell line screen (SRB), CNS cancer; type: cell-based; settings: Homo sapiens; for GI50: read-out: Log10 GI50 (converted)
786-0 = assay: cells; type: cell-based; settings: Homo sapiens; for IC (TGI): read-out: Log10 TGI (converted)
HCC-2998 = assay: NCI 60 cell line screen (SRB), colon cancer; type: cell-based; settings: Homo sapiens
SK-MEL-5 = assay: NCI 60 cell line screen (SRB), melanoma; type: cell-based; settings: Homo sapiens
LOX IMVI = assay: cells; type: cell-based; settings: Homo sapiens; for CC50: read-out: Log10 LC50 (converted); for IC (TGI): read-out: Log10 TGI (converted)
NCI-H522 = assay: cells; type: cell-based; settings: Homo sapiens; for IC (TGI): read-out: Log10 TGI (converted)
MCF7/ADR-RES = assay: cells; type: cell-based; settings: Homo sapiens; for GI50: read-out: Log10 GI50 (converted)
NCI-H322M = assay: cells; type: cell-based; settings: Homo sapiens, read-out: Log10 TGI
SF-539 = assay: cells; type: cell-based; settings: Homo sapiens; for GI50: read-out: Log10 GI50 (converted); for IC (TGI): read-out: Log10 TGI (converted)
OVCAR-3 = assay: NCI 60 cell line screen (SRB), ovarian cancer; type: cell-based; settings: Homo sapiens; for GI50: read-out: Log10 GI50 (converted)
SF-295 = assay: cells; type: cell-based; settings: Homo sapiens
SK-OV-3 = assay: NCI 60 cell line screen (SRB), ovarian cancer; type: cell-based; settings: Homo sapiens
DU-145 = assay: cells; type: cell-based; settings: Homo sapiens
[6] = read-out: Log10 LC50 (converted)
[7] = read-out: Log10 GI50 (converted)
[8] = read-out: Log10 TGI (converted)

Structure (SMILES): C[C@@H]1CC[C@H]2[C@@H](C)C(=O)O[C@@H]3O[C@@]4(C)CC[C@@H]1[C@]32OO4 [Artemisinin]
- potency in vitro compared with mefloquine (P. falciparum [1]): comparable
- CC50 (HS 578T): > 100 µM
- IC (TGI) (HS 578T): > 100 µM
- SD90 (parasitemia 90 percent suppressed) (P. berghei): 6.20 mg/kg
- CC50 (COLO 205): > 100 µM
- IC (TGI) (COLO 205): > 100 µM
- solubility in water [2]: insolubility in water
- clinical cure ([3]; 2099 cases, P. vivax and P. falciparum about 3:1): clinical cure of all patients
- suppression of parasitemias ([3]; P. vivax and P. falciparum): effective at suppressing the parasitemias
- GI50 (K-562): 46.8 µM
- CC50 (K-562; [6]): > 100 µM
- CC50 (UACC-257; [6]): > 100 µM
- activity against P388 leukemia (P388 leukemia): inactive
- IC50 ([4]; Plasmodium falciparum, NF54): 0.01 µM
- potency in vitro compared with chloroquine (P. falciparum [5]): comparable to that of chloroquine
- CC50 (SK-MEL-28; [6]): > 100 µM
- IC (TGI) (SK-MEL-28; read-out: Log10 TGI): > 100 µM
- CC50 (UACC-62): > 100 µM
- CC50 (MALME-3M; [6]): > 100 µM
- IC (TGI) (MALME-3M): 87.1 µM
- GI50 (SN12C): 61.7 µM
- CC50 (SN12C): > 100 µM
- CC50 (OVCAR-5): > 100 µM
- IC (TGI) (OVCAR-5): > 100 µM
- CC50 (RPMI-8226; [6]): > 100 µM
- IC (TGI) (RPMI-8226; read-out: Log10 TGI): > 100 µM

Structure (SMILES): C[C@H]1[C@@H](F)O[C@@H]2O[C@@]3(C)CC[C@H]4[C@H](C)CC[C@@H]1[C@@]24OO3 [Compound VI, 10β-Fluorodeoxoartemisinin]
- GI50 (CAKI-1; CAKI-1, read-out: Log10 GI50 (converted)): 724 µM
- CC50 (CAKI-1): 47.9 µM
- GI50 (MDA-MB-435; [7]): 0.692 µM
- CC50 (MDA-MB-435; [6]): 34.7 µM
- IC (TGI) (MDA-MB-435): 7.24 µM
- GI50 (K-562): 0.316 µM
- IC (TGI) (K-562; [8]): 12.6 µM
- GI50 (SF-268): 13.8 µM
- GI50 (786-0; [7]): 1.55 µM
- IC (TGI) (786-0): 14.8 µM
- GI50 (HCC-2998; [7]): 14.5 µM
- IC (TGI) (HCC-2998; [8]): 12.9 µM
- CC50 (SK-MEL-5; [6]): 61.7 µM
- IC (TGI) (SK-MEL-5; [8]): 13.5 µM
- GI50 (SK-MEL-28; [7]): 17.8 µM
- GI50 (LOX IMVI; [7]): 0.355 µM
- CC50 (LOX IMVI): 31.6 µM
- IC (TGI) (LOX IMVI): 275 µM
- GI50 (NCI-H522; [7]): 0.851 µM
- CC50 (NCI-H522; [6]): 64.6 µM
- IC (TGI) (NCI-H522): 16.6 µM
- GI50 (MCF7/ADR-RES): 3.55 µM
- IC (TGI) (NCI-H322M): > 100 µM
- GI50 (SF-539): 14.1 µM
- IC (TGI) (SF-539): 40.7 µM
- GI50 (OVCAR-3): 2.88 µM

Structure (SMILES): C[C@H]1[C@@H](CC(=O)c2ccc(C(=O)C[C@H]3O[C@@H]4O[C@@]5(C)CC[C@H]6[C@H](C)CC[C@@H]([C@H]3C)[C@@]46OO5)cc2)O[C@@H]2O[C@@]3(C)CC[C@H]4[C@H](C)CC[C@@H]1[C@@]24OO3 [Dimer 21]
- GI50 (SF-295; [7]): 4.79 µM
- CC50 (SF-295; [6]): 77.6 µM
- IC (TGI) (SF-295; [8]): 25.1 µM
- CC50 (CAKI-1): 27.5 µM
- IC (TGI) (CAKI-1; CAKI-1, read-out: Log10 TGI): 0.0891 µM
- CC50 (HS 578T): 72.4 µM
- IC (TGI) (HS 578T): 15.1 µM
- CC50 (COLO 205): 0.0759 µM
- IC (TGI) (COLO 205): 0.0407 µM
- GI50 (SK-OV-3; [7]): 263 µM
- CC50 (SK-OV-3; [6]): 52.5 µM
- IC (TGI) (MDA-MB-435): 25.1 µM
- IC (TGI) (UACC-257; [8]): 17.8 µM
- IC50 compared with artemisinin ([4]; in words): lower than that of artemisinin
- GI50 (SF-268): 0.0631 µM
- IC (TGI) (SF-268; [8]): 79.4 µM
- IC (TGI) (786-0): 14.8 µM
- GI50 (DU-145; [7]): 6.31 µM
- IC (TGI) (DU-145; [8]): 31.6 µM
- GI50 (UACC-62; [7]): 0.0724 µM
- CC50 (UACC-62): 95.5 µM
- IC (TGI) (UACC-62; [8]): 27.5 µM
- GI50 (MALME-3M; [7]): 0.0468 µM
- IC (TGI) (MALME-3M): 28.2 µM
- CC50 (LOX IMVI): 49 µM
- IC (TGI) (LOX IMVI): 12 µM
- IC (TGI) (NCI-H522): 28.2 µM
- GI50 (SN12C): 0.0105 µM
- CC50 (SN12C): 85.1 µM
- IC (TGI) (SN12C; [8]): 12.3 µM
- GI50 (MCF7/ADR-RES): 0.0105 µM
- CC50 (MCF7/ADR-RES; [6]): 79.4 µM
- IC (TGI) (MCF7/ADR-RES; [8]): 14.1 µM
- CC50 (OVCAR-5): 60.3 µM
- IC (TGI) (OVCAR-5): 14.5 µM
- GI50 (SF-539): 0.0166 µM
- CC50 (SF-539; [6]): 38 µM
- IC (TGI) (SF-539): 14.5 µM
- GI50 (OVCAR-3): 0.692 µM
- IC (TGI) (OVCAR-3; [8]): 28.2 µM
